Data: EP3807270B1, “NOVEL HETEROARYL HETEROCYCLYL COMPOUNDS FOR THE TREATMENT OF AUTOIMMUNE DISEASE” (F. Hoffmann-La Roche AG, priority 2018, dated 2019)

Target: T1, CYP2D6 (Homo sapiens, UniProt P10635)
T1 construct: tissue BD-Gentest 452117; host or cells: human liver microsomes
Experiment: CYP inhibition assay in human liver microsome
Format: in vitro ADME
Conditions: human liver microsomes, probe dextromethorphan, 10µM test compound, dextromethorphan substrate, <0: not or weak inhibitor, read-out: CYP 2D6 inhibition %@10µM
In short: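 HLM mixed with CYP2D6 substrate, preincubated 10 min at 37 °C, started with NADPH regenerating system and run 10 min at 37 °C before acetonitrile quench. Metabolite measured by RapidFire MS/MS against D3-dextrorphan internal standard. % inhibition scaled between DMSO and concentrated-inhibitor controls.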

T1 sequence (P10635 whole entry): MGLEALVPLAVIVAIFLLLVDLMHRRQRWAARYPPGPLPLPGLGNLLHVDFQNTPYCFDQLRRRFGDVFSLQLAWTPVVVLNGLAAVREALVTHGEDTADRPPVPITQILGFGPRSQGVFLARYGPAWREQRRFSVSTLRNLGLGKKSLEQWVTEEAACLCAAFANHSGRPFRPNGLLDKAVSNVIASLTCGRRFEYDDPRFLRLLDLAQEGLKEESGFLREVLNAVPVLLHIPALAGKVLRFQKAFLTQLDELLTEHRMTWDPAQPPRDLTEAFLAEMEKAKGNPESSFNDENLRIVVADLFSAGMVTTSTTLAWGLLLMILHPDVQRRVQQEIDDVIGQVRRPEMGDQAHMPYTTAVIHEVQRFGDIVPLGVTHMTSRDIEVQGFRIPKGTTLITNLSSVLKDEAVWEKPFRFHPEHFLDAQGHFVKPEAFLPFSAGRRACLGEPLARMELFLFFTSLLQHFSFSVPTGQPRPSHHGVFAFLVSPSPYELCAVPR

| Compound | inhibition at 10 min, 10 µM [%] |
| --- | --- |
| C[C@@H]1CN(c2ccc(C#N)c3ncccc23)C[C@H](CN2CCN(c3ccc4c(c3)CNCC4)CC2)O1 [Example 9, 5-[(2R,6S)-2-methyl-6-[[4-(1,2,3,4-tetrahydroisoquinolin-7-yl)piperazin-1-yl]methyl]morpholin-4-yl]quinoline-8-carbonitrile] | -2.5 |
| C[C@@H]1CN(c2ccc(C#N)c3ncccc23)C[C@H](CN2CCN(c3cnc4c(c3)CNC4)CC2)O1 [Example 10, 5-[(2S,6R)-2-[[4-(6,7-dihydro-5H-pyrrolo[3,4-b]pyridin-3-yl)piperazin-1-yl]methyl]-6-methyl-morpholin-4-yl] quinoline-8-carbonitrile] | 2.5 |
| C[C@@H]1CN(c2ccc(C#N)c3ncccc23)C[C@H](CN2CCN(c3ccncc3)CC2)O1 [ER-888286, reference compound] | 52.5 |

Other lines, results leading:

| inhibition at 10 min, 10 µM [%] | Compound |
| --- | --- |
| -2.5 | C[C@@H]1CN(c2ccc(C#N)c3nccnc23)C[C@H](CN2CCN(c3cc4c(cn3)CCN[C@@H]4C)CC2)O1 (single isomer, unassigned) [Example 87] |
| 9.5 | C[C@@H]1CN(c2ccc(C#N)c3nccnc23)C[C@H](CN2CCN(c3cc4c(cn3)CCN[C@H]4C)CC2)O1 (single isomer, unassigned) [Example 88] |

Target: T2, hTLR9 (Homo sapiens, UniProt Q9NR96)
T2 sequence (Q9NR96 26-1032): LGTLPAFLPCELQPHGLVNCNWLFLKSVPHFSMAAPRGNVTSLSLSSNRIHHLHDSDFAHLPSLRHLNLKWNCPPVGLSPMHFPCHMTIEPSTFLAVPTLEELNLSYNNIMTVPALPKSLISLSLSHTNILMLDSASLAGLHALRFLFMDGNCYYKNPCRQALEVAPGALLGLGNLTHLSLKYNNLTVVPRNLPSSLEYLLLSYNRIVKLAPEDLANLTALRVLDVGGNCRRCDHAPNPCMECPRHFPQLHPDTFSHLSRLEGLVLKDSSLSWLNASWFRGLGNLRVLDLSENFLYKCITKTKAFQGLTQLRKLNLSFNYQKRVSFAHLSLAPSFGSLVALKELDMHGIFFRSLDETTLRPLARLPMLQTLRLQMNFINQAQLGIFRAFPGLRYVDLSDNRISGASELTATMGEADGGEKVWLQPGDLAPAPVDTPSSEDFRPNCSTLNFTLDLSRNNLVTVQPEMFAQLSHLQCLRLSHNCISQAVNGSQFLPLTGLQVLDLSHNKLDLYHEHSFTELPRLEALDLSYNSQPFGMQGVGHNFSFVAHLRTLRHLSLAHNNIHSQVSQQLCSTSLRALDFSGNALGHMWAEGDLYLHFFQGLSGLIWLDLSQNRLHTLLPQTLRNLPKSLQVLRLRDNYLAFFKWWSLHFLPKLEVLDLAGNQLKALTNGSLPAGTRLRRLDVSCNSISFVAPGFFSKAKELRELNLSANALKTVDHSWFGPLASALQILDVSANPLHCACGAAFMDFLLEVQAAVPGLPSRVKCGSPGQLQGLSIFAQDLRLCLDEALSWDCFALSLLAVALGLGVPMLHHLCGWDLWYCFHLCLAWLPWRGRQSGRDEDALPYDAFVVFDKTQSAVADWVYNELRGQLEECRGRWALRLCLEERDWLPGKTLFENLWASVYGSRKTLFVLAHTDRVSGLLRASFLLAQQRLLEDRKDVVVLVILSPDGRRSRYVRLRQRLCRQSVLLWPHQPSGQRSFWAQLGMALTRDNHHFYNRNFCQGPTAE
Experiment: not given
Set-up: host or cells: HEK
Conditions: data disclosed in US20150105370; read-out: HEK/hTLR9 IC50; cited from earlier work

| Compound | IC50 [nM] |
| --- | --- |
| C[C@@H]1CN(c2ccc(C#N)c3ncccc23)C[C@H](CN2CCN(c3ccncc3)CC2)O1 [ER-888286, reference compound] | > 2000 |
